{
  "source": "patent US9827292B2",
  "about": "“Use of KGF in the treatment of menopausal disorders” (Università degli Studi di Roma “La Sapienza”, priority 2012, dated 2017)",
  "molecules": {"B1": {"name": "keratinocyte growth factor (protein, listed as Homo sapiens)", "chain": "MHKWILTWILPTLLYRSCFHIICLVGTISLACNDMTPEQMATNVNCSSPERHTRSYDYMEGGDIRVRRLFCRTQWYLRIDKRGKVKGTQEMKNNYNIMEIRTVAVGIVAIKGVESEFYLAMNKEGKLYAKKECNEDCNFKELILENHYNTYASAKWTHNGGEMFVALNQKGIPVRGKKTKKEQKTAHFLPMAIT", "notes": "human recombinant KGF (Upstate Biotechnology)"}},
  "key": {"[1]": {"tested_on": "KGFR", "assay": "KGFR mRNA expression by real-time PCR in MCF-7 cells", "assay_type": "cell-based, human", "conditions": "E2 20 ng/ml, 24 h, normalised to 18s, FIG. 3B", "procedure": "(§1) The oestrogen receptor α-positive MCF-7 human breast adenocarcinoma cell line, acquired from American Type Culture Collection (no. HTB-22, ATCC-LGC Promochem, Teddington, UK), was cultured in Dulbecco's modified eagle's medium (DMEM; Invitrogen, Karlsruhe, Germany), supplemented with 10% foetal bovine serum (FBS; Invitrogen) and antibiotics. Primary cultures of human oestrogen-sensitive keratinocytes (KCs) were established from 1 cm^2 full-thickness mucosal biopsy of the vaginal vestibule. Following enzymatic dissociation, the keratinocytes were seeded onto culture plates coated with collagen IV (10 mg/ml), as previously reported [Panici et al, 2007], and were maintained in basal medium of the keratinocytes (KBM, Lonza) supplemented with aliquots of KGM (Lonza), with medium change twice a week. […]\nThe cells were harvested and the total RNA was extracted with the use of TRIzol reagent (Invitrogen). cDNA was generated with oligo (dT) from 1 μg of RNA using the SuperScript III reverse transcriptase kit (Invitrogen). After reverse transcription, the abundance of KGFR in MCF-7 cells treated and untreated with E2 was quantified by Q-RT-PCR. […] Relative quantification was performed using mRNA 18s as an endogenous control. The data were expressed as a rise of mRNA of KGFR compared to the control."}, "[2]": {"assay": "Serum concentrations of E2 and KGF by ELISA in treated mice", "assay_type": "in vivo, mouse", "conditions": "daily treatment for 60 days, ovariectomised mice, FIG. 7A", "procedure": "The mouse strain CD1 was used in this study (Charles Rivers). The mice were held in a standard housing for laboratory animals with controlled lighting (12 h/day) and temperature (25±1° C.) and were provided with food and water ab libitum. All the experimental protocols concerning animals were in line with the Guidelines of Sapienza University for the care and use of laboratory animals and were approved by the Ethical Committee of the aforesaid institution. Forty female mice were subjected to an ovariectomy for the purpose of inducing vaginal atrophy and were administered a diet of Altromin C1000 without phytoestrogens (Altromin, Lage, Germany) for the duration of the experiments. After 30 days, the mice were treated locally, introducing daily into the vaginal canal 25 μl of hydrogel loaded with KGF (10 or 30 ng/day) or with E2 (30 ng/day or 1 μg/day). A control group was treated only with hydrogel. After 60 days of treatment, the mice were killed and the vaginas were immediately explanted, fixed in formalin and processed for histological analysis.\nThe concentrations of E2 and KGF in the serum of treated mice were measured using an ELISA standard kit (R & D Systems, Minneapolis, Minn., USA). The sensitivity of the ELISA assay was ≧10 pg/mL. Standard preparations of E2 or KGF were used as internal controls. The values are presented as mean±standard deviation. […]"}, "[3]": {"tested_on": "ER alpha", "assay": "Western blot of ER alpha phosphorylation (Ser118) in MCF-7 cells", "assay_type": "cell-based, human", "conditions": "20 ng/ml, FIG. 2D", "procedure": "as §1\nMCF-7 cells untreated or treated with KGF or E2 were lysed in RIPA buffer. […] The bound antibody was detected by enhanced chemiluminescence detection reagents (Pierce Biotechnology, Inc, Rockford, Ill., USA), according to manufacturer's instructions. […] Densitometric analysis was performed using Quantity One Program (Bio-Rad Laboratories srl, Segrate, MI, Italy)."}},
  "data": [
    {"molecule": "C[C@]12CC[C@@H]3c4ccc(O)cc4CC[C@H]3[C@@H]1CC[C@@H]2O", "note": "[E2, 17β-oestradiol]", "values": [
      {"measurement": "KGFR mRNA expression compared to untreated cells", "setting": "[1]", "value": 2.2, "unit": "fold increase"},
      {"measurement": "release into the bloodstream (serum levels by ELISA) after local vaginal treatment", "setting": "[2]", "value": "reached the bloodstream even after treatment at low doses"}
    ]},
    {"molecule": "B1", "values": [
      {"measurement": "phosphorylation of ER alpha (Ser118)", "setting": "[3]", "value": "able to induce, equally to E2, phosphorylation of ER alpha"}
    ]}
  ]
}
